Experimental data published in article PMC12155096 (International Journal of Molecular Sciences, 2025).
Structures can show the parent of a compound that is named as a salt. Where two headings read alike, the source gives them in different places.

Assays:
human CYP1A2 = target: T1, human CYP1A2 (Homo sapiens, UniProt P05177)
T1 sequence (P05177 1-516): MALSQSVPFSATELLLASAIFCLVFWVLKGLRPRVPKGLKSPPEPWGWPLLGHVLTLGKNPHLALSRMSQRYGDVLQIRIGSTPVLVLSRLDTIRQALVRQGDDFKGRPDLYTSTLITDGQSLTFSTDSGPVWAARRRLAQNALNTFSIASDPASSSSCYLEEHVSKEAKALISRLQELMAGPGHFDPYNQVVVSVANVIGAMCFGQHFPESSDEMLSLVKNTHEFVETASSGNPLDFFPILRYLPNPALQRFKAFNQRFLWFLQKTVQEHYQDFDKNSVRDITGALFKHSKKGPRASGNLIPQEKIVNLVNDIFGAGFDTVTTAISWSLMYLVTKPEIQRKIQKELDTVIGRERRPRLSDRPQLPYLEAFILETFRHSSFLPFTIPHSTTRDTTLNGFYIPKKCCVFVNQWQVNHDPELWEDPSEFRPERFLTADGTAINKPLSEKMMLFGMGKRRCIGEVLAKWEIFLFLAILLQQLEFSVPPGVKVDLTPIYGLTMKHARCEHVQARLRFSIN

human CYP2D6 = human CYP2D6 (Homo sapiens, UniProt P10635)
human CYP2D6, sequence (P10635 whole entry): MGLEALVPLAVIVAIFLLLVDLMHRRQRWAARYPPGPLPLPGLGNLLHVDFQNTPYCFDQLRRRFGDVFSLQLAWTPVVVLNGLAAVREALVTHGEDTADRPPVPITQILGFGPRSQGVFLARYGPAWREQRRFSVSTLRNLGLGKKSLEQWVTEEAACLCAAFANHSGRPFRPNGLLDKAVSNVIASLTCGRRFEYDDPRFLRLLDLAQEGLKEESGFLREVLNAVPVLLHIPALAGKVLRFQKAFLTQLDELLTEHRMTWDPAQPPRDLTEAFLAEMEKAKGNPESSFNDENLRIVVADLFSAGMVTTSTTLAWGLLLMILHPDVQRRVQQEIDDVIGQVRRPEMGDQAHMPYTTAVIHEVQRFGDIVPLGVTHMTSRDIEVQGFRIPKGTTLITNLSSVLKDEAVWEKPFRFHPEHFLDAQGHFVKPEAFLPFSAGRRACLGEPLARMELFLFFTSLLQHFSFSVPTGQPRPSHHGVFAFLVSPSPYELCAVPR

human CYP2C9 = human CYP2C9 (Homo sapiens, UniProt P11712); test: biochemical
human CYP2C9, sequence (P11712 whole entry): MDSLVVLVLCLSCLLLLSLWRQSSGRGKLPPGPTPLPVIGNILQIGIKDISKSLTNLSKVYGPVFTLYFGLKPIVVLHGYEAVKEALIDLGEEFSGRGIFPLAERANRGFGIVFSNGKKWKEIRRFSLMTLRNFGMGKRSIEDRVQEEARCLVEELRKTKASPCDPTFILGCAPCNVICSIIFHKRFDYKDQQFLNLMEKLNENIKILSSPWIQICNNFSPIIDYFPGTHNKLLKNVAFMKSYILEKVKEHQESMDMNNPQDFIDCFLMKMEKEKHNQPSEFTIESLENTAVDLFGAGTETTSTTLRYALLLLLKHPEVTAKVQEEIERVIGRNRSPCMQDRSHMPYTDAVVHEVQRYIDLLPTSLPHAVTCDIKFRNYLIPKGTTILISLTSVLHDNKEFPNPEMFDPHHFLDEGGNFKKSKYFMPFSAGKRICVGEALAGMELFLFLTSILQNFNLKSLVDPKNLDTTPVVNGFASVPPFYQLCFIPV

human CYP2C19 [1] = target: T2, human CYP2C19 (Homo sapiens, UniProt P33261); test: biochemical
T2 sequence (P33261 whole entry): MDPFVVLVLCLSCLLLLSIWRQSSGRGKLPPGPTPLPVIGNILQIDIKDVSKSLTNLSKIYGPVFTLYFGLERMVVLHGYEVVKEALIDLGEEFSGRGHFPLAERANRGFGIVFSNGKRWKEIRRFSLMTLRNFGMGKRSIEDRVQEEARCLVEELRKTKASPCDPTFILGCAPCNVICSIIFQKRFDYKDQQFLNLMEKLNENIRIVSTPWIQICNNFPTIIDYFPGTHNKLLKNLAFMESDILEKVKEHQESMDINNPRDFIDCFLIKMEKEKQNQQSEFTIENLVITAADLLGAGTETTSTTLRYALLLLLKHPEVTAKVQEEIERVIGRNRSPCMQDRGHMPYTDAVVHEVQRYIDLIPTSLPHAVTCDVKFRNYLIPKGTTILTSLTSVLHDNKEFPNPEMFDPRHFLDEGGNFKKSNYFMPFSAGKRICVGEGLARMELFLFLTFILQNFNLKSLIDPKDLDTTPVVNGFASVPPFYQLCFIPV

CYP3A4 = CYP3A4 (Homo sapiens, UniProt P08684); test: biochemical
CYP3A4, sequence (P08684 whole entry): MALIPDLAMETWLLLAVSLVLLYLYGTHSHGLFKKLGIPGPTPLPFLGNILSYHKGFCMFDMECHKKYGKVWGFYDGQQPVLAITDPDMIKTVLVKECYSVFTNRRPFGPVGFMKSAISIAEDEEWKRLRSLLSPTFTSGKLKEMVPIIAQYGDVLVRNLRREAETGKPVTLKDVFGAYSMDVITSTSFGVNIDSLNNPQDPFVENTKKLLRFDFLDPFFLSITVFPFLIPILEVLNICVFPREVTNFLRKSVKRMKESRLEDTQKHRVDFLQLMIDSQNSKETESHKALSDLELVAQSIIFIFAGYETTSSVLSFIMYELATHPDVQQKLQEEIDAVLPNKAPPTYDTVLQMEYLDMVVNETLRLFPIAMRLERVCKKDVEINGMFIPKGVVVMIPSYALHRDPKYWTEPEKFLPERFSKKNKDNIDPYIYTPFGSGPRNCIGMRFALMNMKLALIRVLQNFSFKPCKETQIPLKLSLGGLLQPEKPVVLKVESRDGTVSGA

human CYP2C19 [2] = target: T2, human CYP2C19
[3] = CYP2C9 AC50 (half-maximal activity concentration)
[4] = CYP2C19 AC50 (half-maximal activity concentration)
[5] = CYP3A4 AC50 (half-maximal activity concentration)

CC(=O)OC(c1ccccc1)C(Cl)(Cl)Cl (stereo not drawn) [2,2,2-Trichloro-1-phenylethyl acetate]
CYP1A2 AC50 (half-maximal activity concentration) (human CYP1A2): Inactive | CYP2D6 AC50 (half-maximal activity concentration) (human CYP2D6): Inactive | AC50 (human CYP2C9): 71.3 µM | AC50 (human CYP2C19 [1]): 35.6 µM | AC50 (CYP3A4): 23.9 µM

O=C1OC2(c3ccccc31)c1ccc(O)c(Br)c1Oc1c2ccc(O)c1Br [4',5'-Dibromofluorescein]
CYP1A2 AC50 (half-maximal activity concentration) (human CYP1A2): Inconclusive inhibitor | CYP2D6 AC50 (half-maximal activity concentration) (human CYP2D6): Inactive | AC50 (human CYP2C9): 46.2 µM | AC50 (human CYP2C19 [1]): 53.7 µM | AC50 (CYP3A4): 27.2 µM

NNS(=O)(=O)c1ccc(Oc2ccc(S(=O)(=O)NN)cc2)cc1 [4,4'-Oxybis(benzenesulfonhydrazide)]
CYP1A2 AC50 (half-maximal activity concentration) (human CYP1A2): Inactive | CYP2D6 AC50 (half-maximal activity concentration) (human CYP2D6): Inconclusive inhibitor | AC50 (human CYP2C9): 6 µM | AC50 (human CYP2C19 [1]): 16.8 µM | AC50 (CYP3A4): 7.84 µM

C[C@]12CCC(=O)C=C1CC[C@@H]1[C@@H]2CC[C@]2(C)C(=O)CC[C@@H]12 [4-Androstene-3,17-dione]
CYP1A2 AC50 (half-maximal activity concentration) (human CYP1A2): Inactive | CYP2D6 AC50 (half-maximal activity concentration) (human CYP2D6): Inconclusive inhibitor | AC50 (human CYP2C9; [3]): 71.9 µM | AC50 (human CYP2C19 [1]; [4]): 33.3 µM | AC50 (CYP3A4; [5]): 8.36 µM

CCOCN(C(=O)CCl)c1c(C)cccc1CC [Acetochlor]
CYP1A2 AC50 (half-maximal activity concentration) (human CYP1A2): Inconclusive inhibitor | CYP2D6 AC50 (half-maximal activity concentration) (human CYP2D6): Inactive | AC50 (human CYP2C9; [3]): 31.2 µM | AC50 (human CYP2C19 [1]; [4]): 9.51 µM | AC50 (CYP3A4; [5]): 8.35 µM

COC(=O)C(C)N(C(=O)Cc1ccccc1)c1c(C)cccc1C (stereo not drawn) [Benalaxyl]
CYP1A2 AC50 (half-maximal activity concentration) (human CYP1A2): Inactive | CYP2D6 AC50 (half-maximal activity concentration) (human CYP2D6): Inconclusive inhibitor | AC50 (human CYP2C9; [3]): 22.6 µM | AC50 (human CYP2C19 [1]; [4]): 5.23 µM | AC50 (CYP3A4; [5]): 4.54 µM

NS(=O)(=O)c1ccc(NCc2ccccc2)cc1 [Benzylsulfamide]
CYP1A2 AC50 (half-maximal activity concentration) (human CYP1A2): Inactive | CYP2D6 AC50 (half-maximal activity concentration) (human CYP2D6): Inactive | AC50 (human CYP2C9): 18.6 ± 5.47 µM | AC50 (human CYP2C19 [1]): 3.82 ± 1.44 µM | AC50 (CYP3A4): 7.8 ± 0.9 µM

C[C@]12CCC(=O)C=C1C=C[C@@H]1[C@@H]2CC[C@@]2(C)[C@H]1CC[C@@]21CCC(=O)O1 [Canrenone]
CYP1A2 AC50 (half-maximal activity concentration) (human CYP1A2): Inconclusive inhibitor | CYP2D6 AC50 (half-maximal activity concentration) (human CYP2D6): Inactive | AC50 (human CYP2C9; [3]): 32.2 µM | AC50 (human CYP2C19 [1]; [4]): 1.67 µM | AC50 (CYP3A4; [5]): 3.48 µM

Cc1ccc(S(=O)(=O)NCl)cc1 [Chloramine-T trihydrate]
CYP1A2 AC50 (half-maximal activity concentration) (human CYP1A2): Inconclusive inhibitor | CYP2D6 AC50 (half-maximal activity concentration) (human CYP2D6): Inactive | AC50 (human CYP2C9; [3]): 81.6 µM | CYP2C19 AC50 (half-maximal activity concentration) (human CYP2C19 [2]): Inconclusive inhibitor | AC50 (CYP3A4; [5]): 67.9 µM

CC(=O)O[C@]1(C(C)=O)CC[C@H]2[C@@H]3C=C(Cl)C4=CC(=O)CC[C@]4(C)[C@H]3CC[C@@]21C [Chlormadinone acetate]
CYP1A2 AC50 (half-maximal activity concentration) (human CYP1A2): Inactive | CYP2D6 AC50 (half-maximal activity concentration) (human CYP2D6): Inactive | AC50 (human CYP2C9; [3]): 14.9 µM | AC50 (human CYP2C19 [1]; [4]): 5.67 µM | AC50 (CYP3A4; [5]): 2.05 µM

CC(=O)OCC(=O)[C@@]12N=C(C)O[C@@H]1C[C@H]1[C@@H]3CCC4=CC(=O)C=C[C@]4(C)[C@H]3[C@@H](O)C[C@@]12C [Deflazacort]
CYP1A2 AC50 (half-maximal activity concentration) (human CYP1A2): Inactive | CYP2D6 AC50 (half-maximal activity concentration) (human CYP2D6): Inactive | AC50 (human CYP2C9; [3]): 60.9 µM | CYP2C19 AC50 (half-maximal activity concentration) (human CYP2C19 [2]): Inactive | AC50 (CYP3A4; [5]): 13.2 µM

CC(=O)O[C@H]1CC[C@@]2(C)C(=CC[C@@H]3[C@@H]2CC[C@]2(C)C(=O)CC[C@@H]32)C1 [Dehydroepiandrosterone acetate]
CYP1A2 AC50 (half-maximal activity concentration) (human CYP1A2): Inconclusive inhibitor | CYP2D6 AC50 (half-maximal activity concentration) (human CYP2D6): Inactive | AC50 (human CYP2C9; [3]): 28.4 µM | AC50 (human CYP2C19 [1]; [4]): 28.4 µM | AC50 (CYP3A4; [5]): 6.03 µM

CCC(=O)Oc1ccc(/C(CC)=C(\CC)c2ccc(OC(=O)CC)cc2)cc1 [Diethylstilbestrol dipropionate]
CYP1A2 AC50 (half-maximal activity concentration) (human CYP1A2): Inactive | CYP2D6 AC50 (half-maximal activity concentration) (human CYP2D6): Inactive | AC50 (human CYP2C9; [3]): 21.2 µM | CYP2C19 AC50 (half-maximal activity concentration) (human CYP2C19 [2]): Inactive | AC50 (CYP3A4; [5]): 22.9 µM

CC(=O)OCC(=O)[C@@]1(OC(C)=O)[C@@H](C)C[C@H]2[C@@H]3C[C@H](F)C4=CC(=O)C=C[C@]4(C)[C@@]3(F)[C@@H](O)C[C@@]21C [Diflorasone diacetate]
CYP1A2 AC50 (half-maximal activity concentration) (human CYP1A2): Inactive | CYP2D6 AC50 (half-maximal activity concentration) (human CYP2D6): Inactive | AC50 (human CYP2C9; [3]): 19 µM | CYP2C19 AC50 (half-maximal activity concentration) (human CYP2C19 [2]): Inconclusive activator | AC50 (CYP3A4; [5]): 4.74 µM

CC(C)COC(=O)CCCCC(=O)OCC(C)C [Diisobutyl adipate]
CYP1A2 AC50 (half-maximal activity concentration) (human CYP1A2): Inconclusive inhibitor | CYP2D6 AC50 (half-maximal activity concentration) (human CYP2D6): Inactive | AC50 (human CYP2C9): 38 µM | CYP2C19 AC50 (half-maximal activity concentration) (human CYP2C19 [2]): Inactive | AC50 (CYP3A4): 11.7 µM

CN(C(=O)C(Cl)Cl)c1ccc(OC(=O)c2ccco2)cc1 [Diloxanide furoate]
CYP1A2 AC50 (half-maximal activity concentration) (human CYP1A2): Inactive | CYP2D6 AC50 (half-maximal activity concentration) (human CYP2D6): Inconclusive | AC50 (human CYP2C9; [3]): 15.5 µM | CYP2C19 AC50 (half-maximal activity concentration) (human CYP2C19 [2]): Inconclusive inhibitor | AC50 (CYP3A4; [5]): 25.3 µM

O=C(NC(=O)c1c(F)cccc1F)Nc1ccc(Oc2ccc(C(F)(F)F)cc2Cl)cc1F [Flufenoxuron]
CYP1A2 AC50 (half-maximal activity concentration) (human CYP1A2): Inactive | CYP2D6 AC50 (half-maximal activity concentration) (human CYP2D6): Inactive | AC50 (human CYP2C9; [3]): 17.8 µM | CYP2C19 AC50 (half-maximal activity concentration) (human CYP2C19 [2]): Inconclusive | AC50 (CYP3A4; [5]): 18.6 µM

Cc1ccc(Cl)c(Nc2ccccc2C(=O)O)c1Cl [Meclofenamate sodium]
CYP1A2 AC50 (half-maximal activity concentration) (human CYP1A2): Inactive | CYP2D6 AC50 (half-maximal activity concentration) (human CYP2D6): Inconclusive inhibitor | AC50 (human CYP2C9; [3]): 24.2 µM | CYP2C19 AC50 (half-maximal activity concentration) (human CYP2C19 [2]): Inactive | AC50 (CYP3A4; [5]): 38.9 µM

Cc1cccc(Nc2ccccc2C(=O)O)c1C [Mefenamic acid]
CYP1A2 AC50 (half-maximal activity concentration) (human CYP1A2): Inconclusive inhibitor | CYP2D6 AC50 (half-maximal activity concentration) (human CYP2D6): Inactive | AC50 (human CYP2C9; [3]): 33 µM | CYP2C19 AC50 (half-maximal activity concentration) (human CYP2C19 [2]): Inconclusive inhibitor | AC50 (CYP3A4; [5]): 73.9 µM

C[C@]12C=CC(=O)C=C1CC[C@@H]1[C@@H]2CC[C@@]2(C)[C@H]1CC[C@]2(C)O [Methandrostenolone]
CYP1A2 AC50 (half-maximal activity concentration) (human CYP1A2): Inactive | CYP2D6 AC50 (half-maximal activity concentration) (human CYP2D6): Inactive | AC50 (human CYP2C9; [3]): 34.7 µM | CYP2C19 AC50 (half-maximal activity concentration) (human CYP2C19 [2]): Inactive | AC50 (CYP3A4; [5]): 2.65 µM

O=C(O)C(F)(F)C(F)(F)C(F)(F)C(F)(F)C(F)(F)C(F)(F)F [Perfluoroheptanoic acid]
CYP1A2 AC50 (half-maximal activity concentration) (human CYP1A2): Inactive | CYP2D6 AC50 (half-maximal activity concentration) (human CYP2D6): Inactive | AC50 (human CYP2C9; [3]): 6.33 µM | CYP2C19 AC50 (half-maximal activity concentration) (human CYP2C19 [2]): Inactive | AC50 (CYP3A4; [5]): 65.8 µM

O=C(O)c1ccccc1C(c1ccc(O)cc1)c1ccc(O)cc1 [Phenolphthalin]
CYP1A2 AC50 (half-maximal activity concentration) (human CYP1A2): Inconclusive inhibitor | CYP2D6 AC50 (half-maximal activity concentration) (human CYP2D6): Inactive | AC50 (human CYP2C9; [3]): 56.6 µM | CYP2C19 AC50 (half-maximal activity concentration) (human CYP2C19 [2]): Inactive | AC50 (CYP3A4; [5]): 30.1 µM

CCCCCCCCCCOS(=O)(=O)O [Sodium decyl sulfate]
CYP1A2 AC50 (half-maximal activity concentration) (human CYP1A2): Inactive | CYP2D6 AC50 (half-maximal activity concentration) (human CYP2D6): Inconclusive inhibitor | AC50 (human CYP2C9): 38.5 µM | CYP2C19 AC50 (half-maximal activity concentration) (human CYP2C19 [2]): Inactive | AC50 (CYP3A4): 85.8 µM

O=C(O)Cc1cc(I)c(Oc2cc(I)c(O)c(I)c2)c(I)c1 [Tetrac]
CYP1A2 AC50 (half-maximal activity concentration) (human CYP1A2): Inactive | CYP2D6 AC50 (half-maximal activity concentration) (human CYP2D6): Inactive | AC50 (human CYP2C9): 46.5 µM | CYP2C19 AC50 (half-maximal activity concentration) (human CYP2C19 [2]): Inactive | AC50 (CYP3A4): 9.83 µM
